Laboratory results from patent US20080107619A1, “Carbohydrate based cellulase inhibitors as feeding stimulants in termites” (University of Florida Research Foundation, Inc., priority 2006, published 2008).
pIC50: −log10 of the molar value.

Legend:
β-glucosidase = test: Post-feeding inhibition of β-glucosidase activity in whole-body homogenates; assay type: in vivo, R. flavipes; details: after 24 days feeding at 25 mM and above
Protocol: Whole body homogenates were used for optimization and post-feeding inhibition studies. Here, 10-15 termite workers were homogenized in 1 to 1.5 ml ice-cold homogenization buffer with a Teflon-glass (Potter-Elvehjem) homogenizer powered by a motorized electric stirrer (Fisher Scientific). After homogenization, both gut region and whole-body preparations were centrifuged at 15,000× g and 4° C. for 15 min. The resulting supernatants from the different gut regions were used directly for subsequent enzyme assays. Supernatants from whole-body homogenates were passed through glass wool to remove excess lipids before proceeding with cellulase activity assays.
Cellulase activity assays were adapted from Han et al. in “Characterization of a bifunctional cellulase and its structural gene,” J. Biol. Chem. 270 (1995) 26012-26019, with optimization for a 96-well microplate format. […] Color was allowed to develop on ice for 15 min before measuring absorbance at 540 nm relative to a glucose standard curve.
The hydrolysis product of both the pNPC and pNPG substrates is p-nitrophenol, which is yellow in color and permits for direct quantification of activity in a kinetic assay. pNPC and pNPG assays were initially incubated at 32° C. for 20 min before measuring the release of the product, p-nitrophenol, at 420 nm. […]

[1] = target: T1, Cel7A cellobiohydrolase (exoglucanase) (Trichoderma reesei, UniProt P62694); details: non-competitive inhibition; Vonhoff et al.; read-out: I50; cited from earlier work
T1 sequence (P62694 18-513): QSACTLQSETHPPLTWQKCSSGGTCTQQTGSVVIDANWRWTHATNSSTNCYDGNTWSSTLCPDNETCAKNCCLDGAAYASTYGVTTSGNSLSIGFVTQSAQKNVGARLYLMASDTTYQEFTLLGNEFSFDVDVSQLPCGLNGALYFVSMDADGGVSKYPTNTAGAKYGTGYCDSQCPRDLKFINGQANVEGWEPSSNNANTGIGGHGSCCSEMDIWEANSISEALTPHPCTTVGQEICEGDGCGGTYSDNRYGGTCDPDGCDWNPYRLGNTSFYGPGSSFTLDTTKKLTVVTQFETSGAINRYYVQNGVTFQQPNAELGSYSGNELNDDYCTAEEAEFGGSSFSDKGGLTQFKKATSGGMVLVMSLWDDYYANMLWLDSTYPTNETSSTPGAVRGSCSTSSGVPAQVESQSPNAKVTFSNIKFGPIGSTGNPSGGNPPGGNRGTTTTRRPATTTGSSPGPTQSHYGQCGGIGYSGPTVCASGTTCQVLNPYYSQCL

[2] = target: T2, 6A cellobiohydrolase (exoglucanase) (Trichoderma reesei, UniProt P07987); details: non-competitive inhibition; Vonhoff et al.; read-out: I50; cited from earlier work
T2 sequence (P07987 25-471): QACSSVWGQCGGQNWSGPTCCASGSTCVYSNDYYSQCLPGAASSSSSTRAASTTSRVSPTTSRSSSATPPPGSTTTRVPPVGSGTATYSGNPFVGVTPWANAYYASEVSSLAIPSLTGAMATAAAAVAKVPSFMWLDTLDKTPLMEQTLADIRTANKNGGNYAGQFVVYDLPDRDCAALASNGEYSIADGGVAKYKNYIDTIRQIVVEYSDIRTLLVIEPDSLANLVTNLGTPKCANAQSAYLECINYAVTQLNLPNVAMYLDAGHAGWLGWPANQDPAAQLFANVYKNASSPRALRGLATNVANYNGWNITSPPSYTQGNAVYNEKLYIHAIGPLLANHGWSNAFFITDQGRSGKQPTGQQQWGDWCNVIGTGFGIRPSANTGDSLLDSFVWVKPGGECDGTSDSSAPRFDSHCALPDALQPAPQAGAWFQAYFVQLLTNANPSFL

In the case of `OC[C@@H]1[C@@H](O[C@@H]2O[C@H](CO)[C@@H](O)[C@H](O)[C@H]2O)[C@H](O)[C@@H](O)c2nccn21` [CBI, cellobioimidazole], the “β-glucosidase activity, maximal reduction relative to controls” value (β-glucosidase) is given as roughly 90%, the pIC50 [1] is given as 3.89 and the pIC50 [2] is given as 6.00.
